Source: patent publication US20260273131A1, “Cell graft delivered in a delivery system and use thereof in regenerative medicine” (China Medical University, priority 2022, published 2026)
Values joined by “and” are separate entries in the source; they are usually repeats but may differ in a detail not shown here. Equal values may be shown once. Where no end group is shown, it is not given here.

Columns and labels:
[1] = system: hMSCs; assay: sGAG production in peptide-bound hMSCs (DMB dye); format: cell-based, human; settings: compared to Col12-TP; at 2 weeks
Experimental: (§1) The hMSCs are incubated with Col12-TP or BiFP peptide for 1 h, and stained with Calcein-AM (green) and ethidium homodimer (magenta), followed by confocal microscopic observation (left). Bar=50 μm. The quantification of viable cell percentages (right). […] The hMSCs are stained with 1,9 dimethylmethlyene blue (DMB) dye and analyzed at OD 525 nm. Results are normalized by PicoGreen dsDNA quantitation. The data are shown as mean±SD. * p<0.05, ** p<0.01, *** p<0.001 and **** p<0.0001 as determined by Student's t test (2 groups) or the ANOVA (≥3 groups).

[2] = Particle size distribution by dynamic light scattering (DLS); format: physicochemical; settings: 0.2 mg/ml in PBS at 25° C.
Experimental: (§2) The triple helix structure of BiFP, collagen, or denatured collagen peptides was measured at 0.2 mg/ml.
(§3) In the present invention, a bifunctional peptide (BiFP) is synthesized to prevent complicated chemical steps and improve efficiency. A 42-residue peptide (BiFP) with a sequence where GPOGPOGPOGPOGFOGERGPOGPOGPOGPODLQYWYPIWDTH, O is hydroxyproline, was prepared in PBS, pH 7.4 at 25° C. by Biomedical Translation Research Center (Taiwan). The triple helix structure of BiFP, collagen, or denatured collagen peptides was measured at 0.2 mg/ml, respectively. The particle size distribution of 0.2 mg/ml BiFP in PBS at 25° C. was examined by dynamic light scattering (DLS). […] Size was evaluated using dynamic light scattering: Malvern ZS90 zetasizer (Malvern Instruments Corp, Malvern, UK).

[3] = system: intervertebral disc (IVD); assay: Rat intervertebral disc damage model induced by 20 G needle puncture; format: in vivo; settings: rat tail
Excerpt: FIG. 7a is the schematic flowchart of the experimental design for intervertebral disc (IVD) regeneration by PBS, BiFP, EGFP-expressing hMSCs without or with delivery in BiFP (BiFP+hMSCs) in the rat intervertebral disc damage model induced by 20 G needle puncture. The rats were sacrificed at the indicated time point. The rat tail tissues were subjected to X-Ray, T2-weighted MRI, Hematoxylin and eosin (H&E), Safranin O/fast green stain, immunohistochemistry and immunofluorescence analysis. […] FIG. 7d and FIG. 7e show the representative images of H&E staining and safranin-O/fast green staining of NP tissues, respectively. […] Positive signal is visualized as brown color (DAB). […] Cell nuclei were counterstained with 4′, 6-diamidino-2-phenylindole (DAPI). Bar=50 μm. […] X-ray, T2-weighted MRI and histological, histochemical and immunofluorescence analyses reveal the successful induction of IVD damage when compared PBS group with sham control group (FIG. 7b-7e).

[4] = system: OA cartilage; assay: OA-specific targeting of labeled BiFP, two-photon microscopy of rat OA joints; format: in vivo; settings: intra-articular injection, rat OA joint, 24 h post-injection
Experimental: (§4) FIG. 4a and FIG. 4b show the FITC-fluorescence-labeled BiFP without or with blocking peptide (FIG. 4a) and the DilC18-fluorescence-labeled rat MSCs (rMSCs) without or with delivery in BiFP (BiFP+rMSCs) (FIG. 4b) are intra-articularly injected into rat OA knee joints pre-established with papain/cysteine, respectively. The whole joint capsules are removed at 24 h post-injection, and articular surfaces of the distal femur are observed under a two-photon microscope. Representative images of second harmonic generation (SHG) signals in collagen and fluorescent signals of BiFP (FIG. 4a) and rMSCs (FIG. 4b) are shown (left). Quantification of overall fluorescence areas (right). FIG. 4c and FIG. 4d show the representative images of Hematoxylin and eosin (H&E) staining (FIG. 4c), and safranin-O/fast green staining (FIG. 4d) of distal femurs of sham-control or OA knee joints collected 8 weeks post-transplantation without or with BiFP, rMSCs, and rMSCs delivered in BiFP (BiFP+rMSCs). […] Bar=50 μm. The data are shown as mean±SD. * p<0.05, ** p<0.01 and **** p<0.0001 as determined by Student's t test (2 groups) or one-way ANOVA (≥3 groups).
Since BiFP can home to OA cartilage and the chondrogenesis-inducing ability of integrin α2β1 is likely to induce MSCs to undergo chondrogenesis, the BiFP is applied in the delivery of human MSCs to the OA cartilage surface for OA regenerative medicine.

[5] = system: hMSCs; assay: hMSC viability, Calcein-AM / ethidium homodimer staining; format: cell-based, human; settings: compared to Col12-TP; 0, 2.5, 10, 40 μM
Experimental: as §1
For BiFP or Col12-TP treatment, 1×10^6 hMSCs incubated in final 200 μl PBS with peptide at 0, 2.5, 10, 40 μM in 37° C. for 30 mins with gently mixing every 10 min. Cells are stained with Calcein-AM (ThermoFisher) for live hMSCs and ethidium homodimer (Life Technologies) for dead hMSCs, respectively. Labeled hMSCs are visualized with ImageXpress Micro Confocal High Content Imaging system (Molecular Devices, Sunnyvale, CA, USA). Three independent images each group are counted live hMSCs and quantified.

[6] = system: hMSCs; assay: WST-1 proliferation assay of peptide-bound hMSCs; format: cell-based, human; settings: compared to Col12-TP
[7] = system: hMSCs; assay: Real-time RT-PCR of chondrogenic genes in peptide-bound hMSCs; format: cell-based, human; settings: compared to Col12-TP; at 1 week
[8] = Circular dichroism (CD) spectroscopy of secondary structure; format: physicochemical; settings: 0.2 mg/ml; PBS, pH 7.4
Experimental: as §2, §3

[9] = system: hMSCs; assay: Fluorescent peptide binding to hMSCs (confocal microscopy, imaging flow cytometry); format: cell-based, human; settings: for binding to hMSCs: fluorescent peptide 0, 2.5, 10, 40 μM, 37° C.; for percentage of cells surrounded by FITC-conjugated BiFP (imaging flow cytometry): increasing concentration from 2.5 to 40 μM
Experimental: FIG. 2a and FIG. 2b show the results of the analysis of hMSCs binding to BiFP. The hMSCs were labeled with Hochest 33258, and incubated with FITC-labeled BiFP for 1 h, followed by imaging flow cytometry on an Amnis Imaging Cytometer (left). Bar=10 μm. Quantification of the percentage of BiFP-bound hMSCs (right).
The FITC-labeled BiFP or rhodamine-labeled collagen XII-targeting peptide (Col12-TP) are chemically synthesized by Biomertech (USA) or ABI (USA) to identify peptide binding by confocal microscopic observation. Briefly, for FITC-BiFP or rhodamine-Col12-TP treatment, 1×10^6 hMSCs incubated with 1 μM DilC18 in 37° C. for 10 min and then incubated in final 200 μl PBS with fluorescent peptide at 0, 2.5, 10, 40 μM in 37° C. for 30 min with gently mixing every 10 min. Cells are counterstained with mounting solution containing DAPI. Peptide fluorescence was taken using an ImageXpress Micro Confocal High Content Imaging system (Molecular Devices, Sunnyvale, CA, USA).

[10] = system: rat OA knee joints; assay: Rat papain/cysteine OA model, histology and modified Mankin score 8 weeks post-transplantation; format: in vivo
Experimental: as §4
Furthermore, after incubation with BiFP, MSCs are immediately injected into OA joints in a rat model, and the joints are subjected to histological examination 8 weeks post-transplantation.

[11] = system: corneal epithelium; assay: Rat corneal epithelial injury model induced by n-heptanol; format: in vivo; settings: one eye drop (20 μl); up to 2 weeks after injury
Experimental: FIG. 8a is the schematic flowchart of the experimental design for corneal epithelium regeneration by EGFP-expressing hMSCs without or with delivery in BiFP (BiFP+hMSCs) in the rat corneal epithelium damage model. […] Representative fluorescein-stained cornea images are shown at indicated time points (left). Quantification of the percentage of healed area was calculated using ImageJ Fiji software (right). * p<0.05, ** p<0.01 and *** p<0.001 as determined by One Way ANOVA. […] Bar=50 μm. […] Positive signal is visualized as brown color (DAB) and NC is negative control. Bar=50 μm. To further confirm the utility of BiFP as a cell carrier and expand the application of BiFP-delivered MSCs in corneal epithelial defect regeneration, a rat model of severe and corneal epithelial injury induced by repeated n-heptanol administration was utilized.

[12] = system: chondrocyte line hiP cells; assay: Col12-TP binding to chondrocyte line hiP cells; format: cell-based

Row | particle size (main size) by dynamic light scattering [2] | conformation in solution by CD spectroscopy [8] | binding to hMSCs [9] | Substance | synthesis of glycosaminoglycan [1] | intervertebral disc regeneration / damage (T2 MRI, safranin-O) [3] | fluorescent signal (red dots) in OA cartilage [4] | cell viability of hMSCs [5] | cell proliferation of hMSCs [6] | expression of chondrogenic genes sox9, col2a1 and aggrecan [7] | percentage of cells surrounded by FITC-conjugated BiFP (imaging flow cytometry) [9] | histology (H&E, safranin-O) of OA knee joints [10] | corneal epithelial defect (fluorescein staining) [11] | binding to collagen XII-expressing hiP cells [12]
1 |  |  | can also bind to hMSCs | GPOGPOGPOGPOGVMGFOGPOGPOGPOGPODLQYWYPIWDTH [BiFP containing a GVMGFO sequence] |  |  |  |  |  |  | increase in the percentage of cells surrounded by FITC-conjugated BiFP |  |  | 
2 |  |  | cannot bind to hMSCs | Col12-TP: collagen XII-targeting peptide of the applicant's previous application TW202128730 (DLQYWYPIWDTH; also: rhodamine-labeled) [reference compound] |  |  |  |  |  |  |  | still exhibited severe OA |  | can bind to Col12-TP

Row | Substance | particle size (main size) by dynamic light scattering [2] | conformation in solution by CD spectroscopy [8] | binding to hMSCs [9] | synthesis of glycosaminoglycan [1] | intervertebral disc regeneration / damage (T2 MRI, safranin-O) [3] | fluorescent signal (red dots) in OA cartilage [4] | cell viability of hMSCs [5] | cell proliferation of hMSCs [6] | expression of chondrogenic genes sox9, col2a1 and aggrecan [7] | percentage of cells surrounded by FITC-conjugated BiFP (imaging flow cytometry) [9] | histology (H&E, safranin-O) of OA knee joints [10] | corneal epithelial defect (fluorescein staining) [11] | binding to collagen XII-expressing hiP cells [12]
3 | GPOGPOGPOGPOGFOGERGPOGPOGPOGPODLQYWYPIWDTH [BiFP] | ~ 1.914 nm and 1.914 nm | stable triple-helical conformation | can bind to hMSCs in a dose-dependent manner | enhance synthesis of glycosaminoglycan | still exhibited severe IVD damage | apparent red dots are observed | increase cell viability | increase | increased expression of chondrogenic genes | increase in the percentage of cells surrounded by FITC-conjugated BiFP | still exhibited severe OA | remained markedly defective even 2 weeks after injury | 
